Reference: patent US6528630B1 (priority 1997, dated 2003)

How the values were obtained:
[1] = test system: human neuronal calcium channel α2 and β1 subunits; experiment: Two-electrode voltage clamp of Xenopus oöcytes injected with α2 and β1 transcripts; conditions: Bay K 8644; n=11
[2] = test system: untransfected HEK 293 cells; experiment: Whole-cell patch clamp of untransfected HEK 293 cells; assay type: cell-based, human; conditions: with or without cAMP or forskolin
α1B-1α2bβ1-2 [3] = target: T1, α1B-1α2bβ1-2 (Homo sapiens, UniProt Q00975); assay type: cell-based
T1 construct: A full-length α1B DNA clone was constructed by ligating portions of the partial cDNA clones; expressed in transfected cells; host or cells: HEK293 (transient)
T1 sequence (Q00975 whole entry, looked up): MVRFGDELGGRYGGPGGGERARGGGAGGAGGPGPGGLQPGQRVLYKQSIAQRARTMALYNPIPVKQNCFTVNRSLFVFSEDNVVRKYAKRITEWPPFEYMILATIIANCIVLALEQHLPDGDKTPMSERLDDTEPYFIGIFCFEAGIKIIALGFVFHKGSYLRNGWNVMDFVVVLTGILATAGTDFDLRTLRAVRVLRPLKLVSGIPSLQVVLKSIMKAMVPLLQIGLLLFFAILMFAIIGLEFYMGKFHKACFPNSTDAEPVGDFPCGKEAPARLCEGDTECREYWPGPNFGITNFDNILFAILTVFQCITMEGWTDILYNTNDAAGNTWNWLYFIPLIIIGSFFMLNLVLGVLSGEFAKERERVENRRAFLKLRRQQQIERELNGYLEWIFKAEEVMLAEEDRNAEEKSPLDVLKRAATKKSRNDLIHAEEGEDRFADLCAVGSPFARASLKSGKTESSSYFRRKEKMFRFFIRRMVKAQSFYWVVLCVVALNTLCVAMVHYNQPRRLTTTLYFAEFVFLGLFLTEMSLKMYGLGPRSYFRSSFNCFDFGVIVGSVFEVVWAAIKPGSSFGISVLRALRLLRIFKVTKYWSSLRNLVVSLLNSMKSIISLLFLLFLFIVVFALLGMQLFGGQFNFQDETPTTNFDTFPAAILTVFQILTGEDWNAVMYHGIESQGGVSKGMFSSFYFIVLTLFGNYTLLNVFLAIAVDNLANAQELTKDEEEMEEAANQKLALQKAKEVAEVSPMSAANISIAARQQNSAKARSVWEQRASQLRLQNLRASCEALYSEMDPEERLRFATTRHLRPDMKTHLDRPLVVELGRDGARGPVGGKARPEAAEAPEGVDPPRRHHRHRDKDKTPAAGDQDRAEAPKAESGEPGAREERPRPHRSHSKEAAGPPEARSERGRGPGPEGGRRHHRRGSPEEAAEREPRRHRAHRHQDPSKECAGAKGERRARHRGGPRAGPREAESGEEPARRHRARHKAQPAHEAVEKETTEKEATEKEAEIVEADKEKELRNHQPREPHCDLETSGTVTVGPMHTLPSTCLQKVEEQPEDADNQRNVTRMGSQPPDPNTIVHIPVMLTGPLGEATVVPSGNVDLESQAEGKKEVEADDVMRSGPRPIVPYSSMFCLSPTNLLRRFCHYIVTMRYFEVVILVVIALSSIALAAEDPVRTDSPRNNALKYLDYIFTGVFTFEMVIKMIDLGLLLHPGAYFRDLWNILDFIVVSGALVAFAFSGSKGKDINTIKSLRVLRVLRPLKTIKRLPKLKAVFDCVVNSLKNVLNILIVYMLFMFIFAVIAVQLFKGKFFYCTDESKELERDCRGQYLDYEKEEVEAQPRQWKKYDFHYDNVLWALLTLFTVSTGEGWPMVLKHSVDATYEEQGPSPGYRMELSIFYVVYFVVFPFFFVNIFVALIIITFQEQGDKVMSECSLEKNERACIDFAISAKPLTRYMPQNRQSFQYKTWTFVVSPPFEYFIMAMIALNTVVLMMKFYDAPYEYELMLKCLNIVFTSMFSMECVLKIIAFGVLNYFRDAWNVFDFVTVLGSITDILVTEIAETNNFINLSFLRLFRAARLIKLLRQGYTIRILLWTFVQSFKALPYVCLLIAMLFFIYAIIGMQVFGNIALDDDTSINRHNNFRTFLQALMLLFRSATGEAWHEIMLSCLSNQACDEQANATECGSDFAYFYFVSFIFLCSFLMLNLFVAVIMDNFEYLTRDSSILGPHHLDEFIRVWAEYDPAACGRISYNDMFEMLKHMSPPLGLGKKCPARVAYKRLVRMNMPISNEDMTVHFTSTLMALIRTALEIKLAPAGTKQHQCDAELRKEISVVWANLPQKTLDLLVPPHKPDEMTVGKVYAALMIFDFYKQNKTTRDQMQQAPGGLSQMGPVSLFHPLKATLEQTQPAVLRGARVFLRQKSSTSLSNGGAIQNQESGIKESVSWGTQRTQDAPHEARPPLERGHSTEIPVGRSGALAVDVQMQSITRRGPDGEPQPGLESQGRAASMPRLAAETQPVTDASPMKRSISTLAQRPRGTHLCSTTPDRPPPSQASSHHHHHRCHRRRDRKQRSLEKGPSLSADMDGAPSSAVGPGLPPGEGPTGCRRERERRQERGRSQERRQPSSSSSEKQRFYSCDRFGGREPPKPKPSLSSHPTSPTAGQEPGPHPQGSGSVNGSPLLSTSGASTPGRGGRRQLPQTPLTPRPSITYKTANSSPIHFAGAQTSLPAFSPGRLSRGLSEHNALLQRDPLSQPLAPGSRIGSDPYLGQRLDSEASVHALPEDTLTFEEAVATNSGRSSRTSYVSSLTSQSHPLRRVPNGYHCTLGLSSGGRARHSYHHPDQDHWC

α1B-1β1-2 = target: T2, α1B-1β1-2 (Homo sapiens, UniProt Q00975); assay type: binding
T2 construct: A full-length α1B DNA clone was constructed by ligating portions of the partial cDNA clones; expressed in transfected cells; host or cells: HEK293 (transient)

α1B-2β1-3 = target: T3, α1B-2β1-3 (Homo sapiens, UniProt Q00975); assay type: binding
T3 construct: Full-length DNA clones and corresponding RNA transcripts, encoding α1, including splice variants of α1A, α1B; expressed in transfected cells; host or cells: HEK293 (transient)

α1B-1α2bβ1-3 = target: T4, α1B-1α2bβ1-3 (Homo sapiens, UniProt Q00975); assay type: binding
T4 construct: A full-length α1B DNA clone was constructed by ligating portions of the partial cDNA clones; expressed in transfected cells; host or cells: HEK293 (transient)

α1B-1β1-3 = target: T5, α1B-1β1-3 (Homo sapiens, UniProt Q00975); assay type: binding
T5 construct: A full-length α1B DNA clone was constructed by ligating portions of the partial cDNA clones; expressed in transfected cells; host or cells: HEK293 (transient)

α1B-2α2bβ1-3 = target: T6, α1B-2α2bβ1-3 (Homo sapiens, UniProt Q00975); assay type: binding
T6 construct: Full-length DNA clones and corresponding RNA transcripts, encoding α1, including splice variants of α1A, α1B; expressed in transfected cells; host or cells: HEK293 (transient)
T6 sequence (Q00975 1-2237 isoform Q00975-2): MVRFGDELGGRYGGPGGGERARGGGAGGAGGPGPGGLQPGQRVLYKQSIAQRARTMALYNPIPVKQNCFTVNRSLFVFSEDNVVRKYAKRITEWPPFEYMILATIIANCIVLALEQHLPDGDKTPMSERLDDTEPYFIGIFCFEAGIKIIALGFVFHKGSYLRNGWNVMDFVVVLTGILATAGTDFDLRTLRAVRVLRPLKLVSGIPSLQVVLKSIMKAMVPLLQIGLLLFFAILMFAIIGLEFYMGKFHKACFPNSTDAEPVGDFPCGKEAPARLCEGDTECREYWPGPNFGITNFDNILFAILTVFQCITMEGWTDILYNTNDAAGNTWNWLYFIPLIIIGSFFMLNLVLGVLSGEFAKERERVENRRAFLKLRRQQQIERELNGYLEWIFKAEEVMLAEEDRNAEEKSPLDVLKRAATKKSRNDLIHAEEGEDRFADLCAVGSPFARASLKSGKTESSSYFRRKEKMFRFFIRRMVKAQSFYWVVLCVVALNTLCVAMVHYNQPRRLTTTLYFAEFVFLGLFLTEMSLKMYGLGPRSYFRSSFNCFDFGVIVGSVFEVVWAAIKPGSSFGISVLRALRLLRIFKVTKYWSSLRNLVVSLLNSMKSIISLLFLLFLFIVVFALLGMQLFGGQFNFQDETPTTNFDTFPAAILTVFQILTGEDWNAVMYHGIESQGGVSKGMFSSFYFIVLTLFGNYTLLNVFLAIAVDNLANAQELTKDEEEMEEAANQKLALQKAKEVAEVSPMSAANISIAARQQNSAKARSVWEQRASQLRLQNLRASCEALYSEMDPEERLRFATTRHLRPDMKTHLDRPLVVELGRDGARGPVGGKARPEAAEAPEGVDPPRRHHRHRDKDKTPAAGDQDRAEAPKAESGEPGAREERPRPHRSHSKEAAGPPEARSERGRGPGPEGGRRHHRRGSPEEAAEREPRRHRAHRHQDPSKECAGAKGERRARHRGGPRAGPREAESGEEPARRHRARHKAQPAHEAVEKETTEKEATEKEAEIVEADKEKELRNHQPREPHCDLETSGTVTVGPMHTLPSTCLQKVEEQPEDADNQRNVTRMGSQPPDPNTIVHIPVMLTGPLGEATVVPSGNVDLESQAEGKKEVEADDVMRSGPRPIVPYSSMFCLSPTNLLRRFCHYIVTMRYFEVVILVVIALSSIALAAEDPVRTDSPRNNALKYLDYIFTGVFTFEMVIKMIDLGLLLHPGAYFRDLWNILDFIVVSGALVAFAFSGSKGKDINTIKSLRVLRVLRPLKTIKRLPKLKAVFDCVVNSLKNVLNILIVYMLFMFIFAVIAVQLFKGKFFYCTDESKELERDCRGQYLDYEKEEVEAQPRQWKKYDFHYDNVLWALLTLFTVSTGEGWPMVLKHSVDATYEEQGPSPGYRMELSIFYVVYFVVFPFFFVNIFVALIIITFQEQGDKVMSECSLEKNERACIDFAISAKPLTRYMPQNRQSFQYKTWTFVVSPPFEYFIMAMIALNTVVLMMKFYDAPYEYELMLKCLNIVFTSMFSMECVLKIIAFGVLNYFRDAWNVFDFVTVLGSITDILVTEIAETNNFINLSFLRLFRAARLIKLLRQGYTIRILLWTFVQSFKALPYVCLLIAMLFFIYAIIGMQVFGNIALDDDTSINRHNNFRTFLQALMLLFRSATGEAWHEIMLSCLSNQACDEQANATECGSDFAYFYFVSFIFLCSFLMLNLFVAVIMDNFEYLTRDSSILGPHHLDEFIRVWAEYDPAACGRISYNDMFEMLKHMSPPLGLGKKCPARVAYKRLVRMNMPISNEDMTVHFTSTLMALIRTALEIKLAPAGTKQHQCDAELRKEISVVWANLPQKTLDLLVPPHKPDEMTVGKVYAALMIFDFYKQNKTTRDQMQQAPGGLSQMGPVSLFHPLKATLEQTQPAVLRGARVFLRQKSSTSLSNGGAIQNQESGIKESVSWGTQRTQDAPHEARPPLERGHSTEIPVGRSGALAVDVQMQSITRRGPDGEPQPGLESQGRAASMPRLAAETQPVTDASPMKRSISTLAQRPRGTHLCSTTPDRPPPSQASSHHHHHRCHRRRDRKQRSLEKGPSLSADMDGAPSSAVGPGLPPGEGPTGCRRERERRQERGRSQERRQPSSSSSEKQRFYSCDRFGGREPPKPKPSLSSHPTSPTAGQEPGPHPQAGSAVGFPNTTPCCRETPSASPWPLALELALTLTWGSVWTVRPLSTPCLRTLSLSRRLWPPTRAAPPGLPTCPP

α1B-1α2bβ1-2 [4] = target: T1, α1B-1α2bβ1-2; assay type: binding
α1B-2β1-2 = target: T7, α1B-2β1-2 (Homo sapiens, UniProt Q00975); assay type: binding
T7 construct: Full-length DNA clones and corresponding RNA transcripts, encoding α1, including splice variants of α1A, α1B; expressed in transfected cells; host or cells: HEK293 (transient)
T7 sequence (Q00975 1-2237 isoform Q00975-2): as above
T7 sequence (Q02641 1-478 isoform Q02641-3 partner): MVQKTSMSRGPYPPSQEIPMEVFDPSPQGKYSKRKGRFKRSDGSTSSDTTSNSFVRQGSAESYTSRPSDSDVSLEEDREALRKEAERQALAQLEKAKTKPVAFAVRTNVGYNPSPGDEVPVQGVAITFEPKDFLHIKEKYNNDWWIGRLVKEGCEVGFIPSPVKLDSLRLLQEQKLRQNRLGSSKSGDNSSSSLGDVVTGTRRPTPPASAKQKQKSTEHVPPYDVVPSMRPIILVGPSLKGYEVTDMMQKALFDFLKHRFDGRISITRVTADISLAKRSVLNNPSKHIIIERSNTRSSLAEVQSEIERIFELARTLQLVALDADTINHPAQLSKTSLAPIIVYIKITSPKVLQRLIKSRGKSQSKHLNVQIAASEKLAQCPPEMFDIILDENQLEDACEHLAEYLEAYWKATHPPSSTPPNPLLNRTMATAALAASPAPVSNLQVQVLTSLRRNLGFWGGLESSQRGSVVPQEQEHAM

α1B-2a2bβ1-2 = target: T8, α1B-2a2bβ1-2 (Homo sapiens, UniProt Q00975); assay type: binding
T8 construct: Full-length DNA clones and corresponding RNA transcripts, encoding α1, including splice variants of α1A, α1B; expressed in transfected cells; host or cells: HEK293 (transient)
T8 sequence (Q00975 1-2237 isoform Q00975-2): as the sequence (Q00975 1-2237 isoform Q00975-2) above

α1B-1α2b = target: T9, α1B-1α2b (Homo sapiens, UniProt Q00975); assay type: binding
T9 construct: A full-length α1B DNA clone was constructed by ligating portions of the partial cDNA clones; expressed in transfected cells; host or cells: HEK293 (transient)

[5] = target: T10, α1B-1, α2b, and β1-2 subunits (Homo sapiens, UniProt Q00975); assay type: binding
T10 construct: A full-length α1B DNA clone was constructed by ligating portions of the partial cDNA clones; expressed in transfected cells; host or cells: HEK293 (transient)

COC(=O)C1=C(C)NC(C)=C([N+](=O)[O-])C1c1ccccc1C(F)(F)F (centres unmarked) [Bay K 8644]
sensitivity of inward barium currents [1]: insensitive
effects of Bay K 8644 (current magnitude, tail currents, activation voltage) [2]: No such effects
effect on channel activity (α1B-1α2bβ1-2 [3]; 1 μM, n=4): no discernable effect

C[C@@H](O)[C@@H]1NC(=O)[C@H](Cc2ccc(O)cc2)NC(=O)[C@@H]2C[C@@H](O)CN2C(=O)[C@H](CC(N)=O)NC(=O)[C@@H]2CSSC[C@@H]3NC(=O)[C@H](CO)NC(=O)[C@H](CO)NC(=O)CNC(=O)[C@@H]4C[C@@H](O)CN4C(=O)[C@H](CO)NC(=O)[C@H](CCCCN)NC(=O)[C@@H](N)CSSC[C@H](NC(=O)[C@H](CSSC[C@@H](C(=O)N[C@@H](Cc4ccc(O)cc4)C(N)=O)NC(=O)[C@H](CCCNC(=N)N)NC(=O)[C@H](CCCCN)NC1=O)NC(=O)[C@H](CC(N)=O)NC(=O)[C@H](Cc1ccc(O)cc1)NC(=O)[C@H](CO)NC(=O)[C@H]([C@@H](C)O)NC(=O)[C@@H]1C[C@@H](O)CN1C(=O)[C@H](CO)NC3=O)C(=O)N[C@@H](CCCNC(=N)N)C(=O)N[C@@H](CO)C(=O)N2 [^125I-ω-CgTx GVIA]
Bmax (sites/cell) (α1B-1β1-2): 5,756 ± 2,163 sites/cell
Bmax (sites/cell) (α1B-2β1-3): 2,944 ± 1,168 sites/cell
Bmax (sites/cell) (α1B-1α2bβ1-3): 91,004 ± 37,654 sites/cell
Bmax (sites/cell) (α1B-1β1-3): 8,729 ± 2,980 sites/cell
Bmax (sites/cell) (α1B-2α2bβ1-3): 37,652 ± 8,129 sites/cell
Bmax (sites/cell) (α1B-1α2bβ1-2 [4]): 45,324 ± 15,606 sites/cell
Bmax (sites/cell) (α1B-2β1-2): 2,126 ± 412 sites/cell
Bmax (sites/cell) (α1B-2a2bβ1-2): 19,371 ± 3,798 sites/cell
Bmax (sites/cell) (α1B-1α2b): 2,256 ± 356 sites/cell

[Cd] [cadmium]
blockage (α1B-1α2bβ1-2 [3]; 50 μM): rapid, complete, and reversible

C[C@@H](O)[C@@H]1NC(=O)[C@H](Cc2ccc(O)cc2)NC(=O)[C@@H]2C[C@@H](O)CN2C(=O)[C@H](CC(N)=O)NC(=O)[C@@H]2CSSC[C@@H]3NC(=O)[C@H](CO)NC(=O)[C@H](CO)NC(=O)CNC(=O)[C@@H]4C[C@@H](O)CN4C(=O)[C@H](CO)NC(=O)[C@H](CCCCN)NC(=O)[C@@H](N)CSSC[C@H](NC(=O)[C@H](CSSC[C@@H](C(=O)N[C@@H](Cc4ccc(O)cc4)C(N)=O)NC(=O)[C@H](CCCNC(=N)N)NC(=O)[C@H](CCCCN)NC1=O)NC(=O)[C@H](CC(N)=O)NC(=O)[C@H](Cc1ccc(O)cc1)NC(=O)[C@H](CO)NC(=O)[C@H]([C@@H](C)O)NC(=O)[C@@H]1C[C@@H](O)CN1C(=O)[C@H](CO)NC3=O)C(=O)N[C@@H](CCCNC(=N)N)C(=O)N[C@@H](CO)C(=O)N2 [ω-CgTX]
binding capacity (Bmax) [5]: 28,710±11,950 sites per cell
block of activity (α1B-1α2bβ1-2 [3]): blocked the activity completely
block of channels (α1B-1α2bβ1-2 [3]): blocked irreversibly
time to complete block (α1B-1α2bβ1-2 [3]): ≤ 2 min
